5 compounds from patent US20240409552A1, “GUAIANOLIDE OLIGOMERS, PREPARATION METHOD AND APPLICATION” (KUNMING INSTITUTE OF BOTANY, CHINESE ACADEMY OF SCIENCES, priority 2021, published 2024) can be followed below.

Common to all, as to assay type: cell-based
One assay relates to SK-Hep-1 cells. Briefly: MTT antihepatoma assay, SK-Hep-1 cells. As to conditions: Homo sapiens, SK-HEP1, 48 h incubation. As to the method:
(§1) • (1). […] The plates were measured at 490 nm using a microplate reader (BIO-RAD, USA). The inhibitory ratio was calculated as [(A490 negative−A490 treated)/(A490 negative−A490 blank)]×100%. The IC50 values were calculated with GraphPad Prism 5 (GraphPad Software, California, USA). Repeat the experiment three times.
In general terms: Tetrazolium assays rely on reduction of a dye to a coloured formazan, in cell work by metabolically active cells.

The subject of the next assay is HepG2 cells. Briefly: MTT antihepatoma assay, HepG2 cells. The settings on record: Homo sapiens, 48 h incubation. As to the method: as §1
Another assay deals with Huh7 cells. Briefly: MTT antihepatoma assay, Huh7 cells. The settings on record: Homo sapiens, Huh-7, 48 h incubation. As to the method:
as §1

For `C=C1C(=O)O[C@@H]2C3=C([C@H]4C[C@]3(C)[C@]3(C4)C(=O)O[C@H]4[C@H]3CCC(C)=C3C[C@H]5O[C@@]5(C)[C@@H]34)[C@@](C)(O)CC[C@@H]12` [Compound 1], the IC50 – broadly, the concentration needed to halve the response being measured – in the assay on SK-Hep-1 cells amounted to 11.2 µM; in the assay with HepG2 cells it was 12.8 µM; in the assay on Huh7 cells, 20.2 µM.

In the case of `C=C1C(=O)O[C@@H]2C3=C([C@H]4C[C@]3(C)[C@]3(C4)C(=O)O[C@@H]4C5C(=C(C)CC[C@H]43)CC[C@@]5(C)O)[C@@](C)(O)CC[C@@H]12` (stereo partly drawn) [Compound 2], the IC50 in the assay with SK-Hep-1 cells came out at 16.5 µM; with HepG2 cells, 5.9 µM; in the assay with Huh7 cells, 11.9 µM.

For `C=C1C(=O)O[C@@H]2C3=C([C@H]4C[C@]3(C)[C@]3(C4)C(=O)O[C@@H]4C5=C([C@H]6C[C@]5(C)[C@]5(C6)C(=O)O[C@@H]6[C@H]7C(C)=CC[C@@]78O[C@@]8(C)CC[C@H]65)[C@@](C)(O)CC[C@H]43)[C@@](C)(O)CC[C@@H]12` [Compound 3], the IC50 in the assay with SK-Hep-1 cells was 7.2 µM; in the assay with HepG2 cells, 6.2 µM; in the assay on Huh7 cells it was 6.8 µM.

With `C=C1C(=O)O[C@@H]2C3=C([C@H]4C[C@]3(C)[C@]3(C4)C(=O)O[C@@H]4C5=C([C@H]6C[C@]5(C)[C@]5(C6)C(=O)O[C@@H]6C7=C([C@H]8C[C@]7(C)[C@]7(C8)C(=O)O[C@@H]8[C@H]9C(C)=CC[C@@]9%10O[C@@]%10(C)CC[C@@H]87)[C@@](C)(O)CC[C@H]65)[C@@](C)(O)CC[C@H]43)[C@@](C)(O)CC[C@@H]12` [Compound 4], the IC50 worked out at 7.9 µM with SK-Hep-1 cells, 14.7 µM with HepG2 cells and 10.9 µM with Huh7 cells.

For `CNC(=O)c1cc(Oc2ccc(NC(=O)Nc3ccc(Cl)c(C(F)(F)F)c3)cc2)ccn1` [sorafenib, reference compound], the IC50 in the assay with SK-Hep-1 cells is 22.5 µM; with HepG2 cells, 12.8 µM; in the assay on Huh7 cells, 10.9 µM.
